Test results from US9738642B2, “Triazolopyridine ether derivatives and their use in neurological and pyschiatric disorders” (BRISTOL-MYERS SQUIBB COMPANY, priority 2013, dated 2017).
Where a name gives a salt, the structure may show the parent alone. Read-outs that look alike come from different tables or passages of the source.

Biological target: T1, human mGluR2 (Homo sapiens, UniProt Q14416)
T1 construct: expressed in transfected cells; host or cells: HEK293 clonal line
Assay: mGluR2 cAMP assay
Assay type: cell-based
Conditions: clonally expressed human mGluR2 in HEK293, 1 μM forskolin, 1 μM LY-341495, 30 min, CISBIO cAMP kit

[1] = read-out: EC50 (nM), activity in mGluR2 cAMP assay

T1 sequence (Q14416 19-872): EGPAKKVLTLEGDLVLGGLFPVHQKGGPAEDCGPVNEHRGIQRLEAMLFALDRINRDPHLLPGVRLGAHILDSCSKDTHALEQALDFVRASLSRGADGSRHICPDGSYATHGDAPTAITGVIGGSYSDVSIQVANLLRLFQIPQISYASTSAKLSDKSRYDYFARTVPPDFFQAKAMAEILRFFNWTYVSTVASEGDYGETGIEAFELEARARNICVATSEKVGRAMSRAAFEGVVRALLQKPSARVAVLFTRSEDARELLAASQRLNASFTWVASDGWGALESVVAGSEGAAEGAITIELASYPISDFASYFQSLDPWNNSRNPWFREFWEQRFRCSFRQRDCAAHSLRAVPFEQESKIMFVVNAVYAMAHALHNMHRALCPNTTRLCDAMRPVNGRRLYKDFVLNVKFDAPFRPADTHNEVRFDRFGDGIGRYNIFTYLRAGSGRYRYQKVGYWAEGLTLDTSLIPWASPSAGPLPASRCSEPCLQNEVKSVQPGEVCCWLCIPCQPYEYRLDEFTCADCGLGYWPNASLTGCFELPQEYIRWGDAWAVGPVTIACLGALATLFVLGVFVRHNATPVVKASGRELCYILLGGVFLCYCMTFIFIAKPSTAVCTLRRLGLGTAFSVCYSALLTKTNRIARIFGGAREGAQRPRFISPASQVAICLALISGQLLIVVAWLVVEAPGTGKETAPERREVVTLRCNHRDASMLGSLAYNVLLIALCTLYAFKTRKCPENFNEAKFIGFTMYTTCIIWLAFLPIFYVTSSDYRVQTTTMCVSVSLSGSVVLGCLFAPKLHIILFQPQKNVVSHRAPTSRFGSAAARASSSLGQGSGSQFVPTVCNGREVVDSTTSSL

Row | SMILES | EC50 [1] [nM] | EC50 (EC50 (nM), activity in mGluR2 cAMP assay) [nM]
1 | Fc1cccc(F)c1COc1ccn2c(CC3CC3)nnc2c1Cl [Example 71, 8-Chloro-3-(cyclopropylmethyl)-7-(2,6-difluorobenzyloxy)-[1,2,4]triazolo[4,3-a]pyridine] | 11 | 
2 | COc1cccc(F)c1COc1ccn2c(CC3CC3)nnc2c1Cl [Example 72, 8-Chloro-3-(cyclopropylmethyl)-7-(2-fluoro-6-methoxybenzyloxy)-[1,2,4]triazolo[4,3-a]pyridine] | 42 | 
3 | FC(F)(F)Oc1ccc(Cl)cc1COc1ccn2c(CC3CC3)nnc2c1Cl [Example 73, 8-Chloro-7-(5-chloro-2-(trifluoromethoxy)benzyloxy)-3-(cyclopropylmethyl)-[1,2,4]triazolo[4,3-a]pyridine] | 22 | 
4 | COc1ccc(F)cc1COc1ccn2c(CC3CC3)nnc2c1Cl [Example 74, 8-Chloro-3-(cyclopropylmethyl)-7-(5-fluoro-2-methoxybenzyloxy)-[1,2,4]triazolo[4,3-a]pyridine] | 21 | 
5 | Clc1c(OCc2cccc(OC3CC3)c2)ccn2c(CC3CC3)nnc12 [Example 75, 8-Chloro-7-(3-cyclopropoxybenzyloxy)-3-(cyclopropylmethyl)-[1,2,4]triazolo[4,3-a]pyridine] | 29 | 
6 | Fc1cc(F)cc(COc2ccn3c(CC4CC4)nnc3c2Cl)c1 [Example 76, 8-Chloro-3-(cyclopropylmethyl)-7-(3,5-difluorobenzyloxy)-[1,2,4]triazolo[4,3-a]pyridine] | 4.1 | 
7 | Fc1cccc(Cl)c1CCOc1ccn2c(CC3CC3)nnc2c1C(F)(F)F [Example 80, 7-(2-Chloro-6-fluorophenethoxy)-3-(cyclopropylmethyl)-8-(trifluoromethyl)-[1,2,4]triazolo[4,3-a]pyridine] | 0.4 | 
8 | Fc1cccc(F)c1CCOc1ccn2c(CC3CC3)nnc2c1C(F)(F)F [Example 81, 3-(Cyclopropylmethyl)-7-(2,6-difluorophenethoxy)-8-(trifluoromethyl)-[1,2,4]triazolo[4,3-a]pyridine] | 1.5 | 
9 | Clc1cc(COc2ccn3c(CC4CC4)nnc3c2Cl)nc(Cl)n1 [Example 82, 8-Chloro-3-(cyclopropylmethyl)-7-((2,6-dichloropyrimidin-4-yl)methoxy)-[1,2,4]triazolo[4,3-a]pyridine] | 20 | 
10 | FC(F)(F)c1c(OCC(F)(F)c2ccccc2)ccn2c(CC3CC3)nnc12 [Example 83, 3-(Cyclopropylmethyl)-7-(2,2-difluoro-2-phenylethoxy)-8-(trifluoromethyl)-[1,2,4]triazolo[4,3-a]pyridine] | 6.1 | 
11 | COC1(c2ccc(F)cc2)CCC(Oc2ccn3c([C@H]4C[C@@H]4F)nnc3c2C(F)(F)F)CC1 (stereo partly drawn) [Example 90, 3-((1R,2S)-2-Fluorocyclopropyl)-7-((1s,4s)-4-(4-fluorophenyl)-4-methoxycyclohexyloxy)-8-(trifluoromethyl)-[1,2,4]triazolo[4,3-a]pyridine] | 19 | 
12 | COC1(c2ccc(F)cc2)CCC(Oc2ccn3c([C@@H]4C[C@H]4F)nnc3c2C(F)(F)F)CC1 (stereo partly drawn) [Example 91, 3-((1S,2R)-2-Fluorocyclopropyl)-7-((1s,4s)-4-(4-fluorophenyl)-4-methoxycyclohexyloxy)-8-(trifluoromethyl)-[1,2,4]triazolo[4,3-a]pyridine] | 83 | 
13 | CO[C@]1(c2ccc(F)cc2)CC[C@H](Oc2ccn3c(C4CC4)nnc3c2C(F)(F)F)CC1 [Example 92, 3-Cyclopropyl-7-((1s,4s)-4-(4-fluorophenyl)-4-methoxycyclohexyloxy)-8-(trifluoromethyl)-[1,2,4]triazolo[4,3-a]pyridine] | 35 | 
14 | CO[C@]1(c2ccc(F)cc2)CC[C@H](Oc2ccn3c(C4CC(F)(F)C4)nnc3c2C(F)(F)F)CC1 [Example 93, 3-(3,3-Difluorocyclobutyl)-7-((1s,4s)-4-(4-fluorophenyl)-4-methoxycyclohexyloxy)-8-(trifluoromethyl)-[1,2,4]triazolo[4,3-a]pyridine] | 20 | 
15 | O[C@]1(c2ccc(F)cc2)CC[C@H](Oc2ccn3c(CC4CC4)nnc3c2C(F)(F)F)CC1 [Example 95, (1s,4s)-4-(3-(Cyclopropylmethyl)-8-(trifluoromethyl)-[1,2,4]triazolo[4,3-a]pyridin-7-yloxy)-1-(4-fluorophenyl)cyclohexanol, TFA salt] | 1 | 
16 | Fc1ccc([C@H]2C[C@H](Oc3ccn4c(CC5CC5)nnc4c3C(F)(F)F)C2)cc1 [Example 96, 3-(Cyclopropylmethyl)-7-((1r,3r)-3-(4-fluorophenyl)cyclobutoxy)-8-(trifluoromethyl)-[1,2,4]triazolo[4,3-a]pyridine] |  | 0.4
17 | CO[C@]1(c2ccc(F)cc2)CC[C@H](Oc2ccn3c(CC(F)(F)F)nnc3c2C(F)(F)F)CC1 [Example 97, 7-((1s,4s)-4-(4-Fluorophenyl)-4-methoxycyclohexyloxy)-3-(2,2,2-trifluoroethyl)-8-(trifluoromethyl)-[1,2,4]triazolo[4,3-a]pyridine] | 1 | 
18 | [2H]C([2H])([2H])O[C@]1(c2ccc(F)cc2)CC[C@H](Oc2ccn3c(CC4CC4)nnc3c2C(F)(F)F)CC1 [Example 99, 3-(Cyclopropylmethyl)-7-((1s,4s)-4-(4-fluorophenyl)-4-(methoxy-d3)cyclohexyloxy)-8-(trifluoromethyl)-[1,2,4]triazolo[4,3-a]pyridine] | 0.5 | 
